Read-outs that look alike come from different tables or passages of the source.
What was measured:
serum albumin = conditions: background, no reference given; cited from earlier work
From the text: (§1) Detemir is an insulin analog in which a fatty acid (myristic acid) is bound to the lysine amino acid at position B29. […] Accordingly, its persistence as a potential antigen in circulation must not be ruled out. Glargine was created by modifying three amino acids. […] In order to avoid ...

[1] = cited from earlier work
From the text: Detemir is an insulin analog in which a fatty acid (myristic acid) is bound to the lysine amino acid at position B29. […] Accordingly, its persistence as a potential antigen in circulation must not be ruled out. Glargine was created by modifying three amino acids. […] In order to avoid ... || Glulisine is a rapid-acting insulin analog that differs from human insulin in that the amino acid asparagine at position B3 is replaced by lysine and the lysine in position B29 is replaced by glutamic acid.

[2] = test system: insulin antibodies (IA) in patient serum; experiment: Displacement radioimmunoassay (RIA) for affinity and cross-reactivity of insulin antibodies in patient serum; format: binding, human; conditions: for Selectivity (S = KL/KCi): at start of study, KL = K0 of regular human insulin, KCi = K0 of the competitor analog; for K0, average (median) affinity constant: at start of study (before change of insulin), patient serum 30 μL, duplicates, 5 days at 4 °C (near equilibrium), tracer mono [^125I A14] insulin ~20,000 cpm (5.8 × 10^−11 M), competitor 1 × 10^−9 to 10^−6 M
Procedure: The homogeneous mono [^125I A14]
For in vitro cross-reactivity assessment a displacement RIA was applied by using the tracer described above. Briefly, duplicate 30 μL serum samples from the patient were incubated during 5 days at 4 °C (near equilibrium) with a constant amount of tracer (∼20,000 cpm). […] Insulin analogs were engineered to enhance desired molecular properties without altering immunogenicity, at least in theory. However, since the amino acid sequence of these insulin variants were changed to alter its absorption, distribution, metabolism and excretion characteristics, some residual capacity to elicit specific antibodies must be expected. […] Also the grade of alteration of the natural insulin molecule is of importance.
In order to express the degree of cross reactivity of IA induced by the initial insulin formulation (¨Ligand̈, L), against a panel of slow or fast action insulin analogs as described above (Competitors̈, Ci), the parameter selectivity (S), as defined elsewhere (Berzofsky and Schechter; Berzofsky et al.), was employed. Approximate values for average (median) affinity (K0) for L and those from each Ci, were obtained from the plots of B/F signals as a function of each competitor concentration, interpolating in the abscissa axis the respective doses corresponding to the maximum/2 signal [(B/F)0/2] (Graphical abstract, RIA plot). Alternatively, a best fit to the true affinity constants was obtained by representing B/F signals for each ligand as a function of free tracer (F) calculated by the formula: F = [C/(1 + B/F)]. It is important to emphasize that the molar concentration of the tracer in the test must be lower than the inverse of K0 value. This condition precludes the preparation of the respective labeled competitors to perform specific single RIAs for each homologous ligand. (Berzofsky and Schechter). In the RIA the concentration of tracer was 5.8 × 10^−11 M (see Preparation of the homogeneous tracer mono [^125I A14] Insulin) and K0 values for IA (ranging 10^6–10^8 M^−1) were obtained from previous work of our laboratory (Trabucchi et al.; Trabucchi et al.).
Finally, the respective Selectivity ratios were obtained using the expression: Si = KL/KCi.

[3] = background, no reference given, cited from earlier work
From the text: as §1

[4] = test system: anti-insulin antibodies (IA)
Procedure: Insulin used as a tracer for both radiometric methods, RBA and RIA, was produced using recombinant human insulin (HumulinC from Eli Lilly, Indiana, USA) devoid of preservative substances by chromatography on a Sephadex G25 column (Amersham Biosciences, New Jersey, USA). The labeling and HPLC purification steps were carried out following as indicated by Linde et al. [3] and Jørgensen et al. [4], respectively. Specific radioactivity of roughly 300–380 μCi/μg was routinely achieved.
The concentration of tracer in both, RBA and RIA, was 5.8 × 10^−11, calculated from an activity of 20,000 cpm; Relative mass of insulin, 5808 Da; Final incubation volume, 0,12 mL; Gamma counter efficiency, 70%; Specific activity of fresh insulin tracer, 380 μCi/μg.
Radioligand binding assay for IA assessment, performed routinely as official analysis service at IDEHU-CONICET laboratory, was based on the original procedure indicated by Kurtz et al. [5] and carried out essentially as previously described by Stumpo et al. [6]. […] Results were expressed as specific insulin binding percentage B% = Bwi% (preincubated without cold insulin) – Bie% (preincubated with excess cold insulin). Reproducibility was assessed at different binding levels. […]

[5] = Metabolic control of the patient (glycaemia, HbA1c) under insulin treatment; format: in vivo, human
[6] = effect of the sequence modification; background, no reference given; cited from earlier work
From the text: (§2) Lispro was engineered through recombinant DNA technology so that the penultimate lysine and proline residues on the C-terminal end of the B-chain were reversed. […] This allowed larger amounts of active monomeric insulin to be available for postprandial (after meal) injections. Similar to Glulisine, the monomeric state of Lispro theoretically may diminish the chance of phagocytosis by cells of the Immune System resulting in lower immunogenicity.

insulin receptor = conditions: effect of the sequence modification; background, no reference given; cited from earlier work
From the text: as §2

[7] = after 6 months of Glulisine 0,6 IU/Kg/day by pump infusion
[8] = before change, more than 3 IU/kg/day NPH human insulin complemented with crystalline human insulin

## Detemir
Serum albumin
  affinity for serum albumin (in words): high affinity for serum albumin
[1]
  duration/onset of action (in words): increasing its duration of action
[2]
  Selectivity (S = KL/KCi): ~1

## Glargine
[3]; physiological pH
  solubility at physiological pH (in words): less soluble at a physiological pH
[3]; shifted from 5.4 by two added arginine residues
  isoelectric point: 6.7
[3]; slightly acidic pH
  solubility at slightly acidic pH (in words): more soluble at a slightly acidic pH
[1]; background, no reference given
  duration/onset of action (in words): prolonged action when compared with biosynthetic human insulin
[2]
  K0, average (median) affinity constant: 2.1e+07 M⁻¹
  Selectivity (S = KL/KCi): 37.6

## Glulisine
[1]; background, no reference given
  duration/onset of action (in words): rapid-acting
[2]
  K0, average (median) affinity constant: 1e+06 M⁻¹
  Selectivity (S = KL/KCi): 790
[2]; in vitro, at the same doses, start of study
  IA binding rate compared with regular human insulin: 1/790
[4]
  change of B% signal (in words): significant decrease in B% signal
[5]; [7]
  HbA1c: 7.6%
  HbA1c (IFCC): 60 mmol/mol
  metabolic control (in words): recovered metabolic control

## Lispro
[6]
  formation of insulin dimers and hexamers (in words): blocked the formation of insulin dimers and hexamers
Insulin receptor
  insulin receptor binding (in words): did not alter the insulin receptor binding
[2]
  K0, average (median) affinity constant: 1.96e+07 M⁻¹
  Selectivity (S = KL/KCi): 40.3
[2]; control RIA on serum sample after 14 months (of Glulisine treatment)
  K0, affinity constant: 3.4e+07 M⁻¹

## NPH human insulin: NPH human insulin (Humulin – Eli Lilly) complemented with crystalline human insulin
[5]; [8]
  HbA1C: 11%
  HbA1C (IFCC): 97 mmol/mol
[5]; before change, more than 3 IU/kg/day NPH human insulin complemented with crystalline human insulin, last two years
  metabolic control (in words): inadequate metabolic control

## regular human insulin: unlabeled regular crystalline human insulin (Humulin, Eli Lilly)
[2]
  K0, average (median) affinity constant: 7.9e+08 M⁻¹

From article PMC5007476, “Use of cross-reactivity immunoassay to orient insulin replacement in diabetic patients with high levels of insulin antibodies” (MethodsX, 2016)
